Assay [1] is described as follows: Oxygen transport across the skin, transcutaneous oxygen monitor (TCOM). In kind it is in vivo. The note with it: normal rat switched to 100% oxygen at time zero, intravenous injection in the femoral vein, versus saline control. On the procedure:
Diffusion enhancing compounds such as kosmotropes increase the oxygen transport in vivo. In the subject experiment, the oxygen diffusing through the skin of a normal, non-diseased rat was measured using a transcutaneous oxygen monitor (TCOM). In the subject study, the rats breathed air and then were switched to breathing 100% oxygen at a time equal to zero. Also at time zero, the rats were injected (intravenously in the femoral vein) with either saline (control), trehalose, glycine betaine, or TSC.

For assay [2] the following is noted: TSC concentrations from 1 μmole/liter to around 200 μmole/liter; cited from earlier work.
The conditions of assay [3]: rats breathing 100% oxygen; cited from earlier work.
Assay [4] can be described thus: Glucose diffusion through aqueous kosmotrope solutions, microinterferometric method. The note with it: about 10 μM kosmotrope in water, 25° C., glucose 0.9 molar. The assay is classed as physicochemical. As to the method:
The diffusion of glucose through aqueous solutions of the above-mentioned kosmotropes was measured using a microinterferometric method, Secor, R. M., AIChE Journal, 11: 452-456, 1965.
In this method, a wedge is formed by two microscope slides that have a partial coating of a metal such as aluminum on the inner sides of the wedge. The wedge is placed on a microscope stage and illuminated from below using some source of monochromatic light, such as a helium-neon laser. As the light passes through the wedge, the partial coating of aluminum allows some light to be transmitted, while some is reflected. This creates constructive and destructive lines known as interference fringes. The interference fringes can then be magnified by a microscope and recorded with a camera.
Molecules of glucose will diffuse along a concentration gradient of glucose. Since the refractive index of the solution is related to the concentration of the glucose, the fringes at a given point will change with time. […]
Solutions of three kosmotropes (proline, betaine and trehalose) in water were made, so that the solutions contained about 10 μM of each of the kosmotropes. Using the trehalose solution as an example, the diffusivity of glucose through each of these solutions was then measured in the following way.
The trehalose solution was divided into two parts. […] A camera recorded the resulting fringe pattern. […]

Regarding `C[N+](C)(C)CC(=O)O` [glycine betaine, Glycine betaine], the “oxygen transport across the skin (TCOM readings)” value (“oxygen transport across the skin” below) in assay [1] is “increased oxygen transport across the skin”.

Take `CC(/C=C/C=C(\C)C(=O)[O-])=C\C=C\C=C(C)\C=C\C=C(/C)C(=O)[O-].[Na+].[Na+]` [TSC, trans sodium crocetinate]: in assay [2], the “increase in the diffusivity of glucose through water” value is given as “around 30%”. Moreover, in assay [1], the “oxygen transport across the skin” value was “increased oxygen transport across the skin”. Besides, the brain oxygen level entry in assay [3] is “further increased the brain oxygen level”.

On to `OC[C@H]1O[C@H](O[C@H]2O[C@H](CO)[C@@H](O)[C@H](O)[C@H]2O)[C@H](O)[C@@H](O)[C@@H]1O` [trehalose, Trehalose], for which the “oxygen transport across the skin” value in assay [1] was “increased oxygen transport across the skin”. In addition, the “diffusivity of glucose through the solution compared with plain water” value in assay [4] is on record as “greater than the value of glucose through plain water”.
